Assay results from US20030204875A1, “Novel agrobacterium-mediated plant transformation method” (priority 1999, published 2003).
Where two headings read alike, the source gives them in different places.

Legend:
[1] = tested on: Agrobacterium (strain ABI); assay type: cell-based; design: key: “No Growth” indicates there was not an increase in cell density indicating bacteriocidal or bacteriostatic property of the chemical; “Slow Growth” indicates that a slight increase in cell density was noticed and a higher level may be lethal; “Growth” indicates no effect on bacterial growth at the concentration used relative to growth in control medium; conditions: twenty-four hours
Description: Each of the chemicals listed in Table 26 was resuspended in MS-BMS media and added (final concentration 50 μM) to a 50 ml overnight culture of Agrobacterium (strain ABI). Twenty-four hours after inoculation the effect of the chemicals on the growth of Agrobacterium was recorded. A known bacteriocidal compound, Carbenicillin at a final concentration of 50 mg/L and AgNO3 (20 μM) were used as controls.

[2] = tested on: immature embryos of genotype (H99×Pa 91)A188; test: Transformation efficiency of corn with different growth inhibiting agents during co-culture; assay type: cell-based; conditions: 50 mg/L in co-culture medium, three days; OD 4.0
Description: b) Biological assay (leaf bleach assay). Leaf samples (a leaf punch) from approximately 2-week-old seedlings were placed in wells of 24-well cell culture clusters (Costar Corporation, Cambridge, Mass.). Each well was filled with 0.5 ml aqueous solution composed of 300 mg/L paromomycin (Sigma) and 100 mg/L Benlate (a fungicide made by Du Pont), 100 mg/IL Benlate alone was used as a control. Three leaf samples from the same leaf of each plant were placed in two wells containing paromomycin plus Benlate and one well containing Benlate alone, respectively. Leaf samples from non-transformed plants were used as negative controls. The samples were vacuum-infiltrated in a dessicator using an in-house vacuum system for 5 min and then the clusters were sealed tightly with parafilm before being placed under light (140 μMol m-2s-1). The results were determined after 60 hours.
Immature embryos of genotype (H99×Pa 91)A188 were isolated as described. […] The Agrobacterium strain was pre-induced as described. The inoculation was performed using a concentration of A660 OD 4.0 for 15 minutes as described. Post inoculation, Agrobacterium suspension was removed and embryos were placed on different semi-solid co-culture media supplemented with various bacteriocidal compounds. All the tissues were incubated for three days in the dark. The transformation protocol followed was as described previously (corn IE transformation) except that the 1st selection with 50 mg/L Paromomycin was replaced with 25 mg/L Paromomycin for 2 weeks and 50 mg/L Paromomycin for 2 additional weeks. Transformation efficiency was calculated based on the number of embryos producing nptII positive plants as determined by a leaf bleach assay as described earlier. Three weeks after the transformation, the quality and growth characteristics of IE-derived callus co-cultured in the presence of different growth inhibiting agents.

[3] = final concentration 50 μM in MS-BMS media

Question: `[Na+].[Na+].[O]=[W](=[O])([O-])[O-]` [Sodium Tungstate] was tested. Which “Effect (on growth of Agrobacterium)” value [1, 3] did it give?
Answer: The value was “Growth”.

Question: How did the “Effect (on growth of Agrobacterium)” value [1, 3] turn out when `[Cl][Cd][Cl]` [Cadmium Chloride] was run?
Answer: The value was “Slow Growth”.

Question: For `CC1(C)S[C@@H]2[C@H](NC(=O)C(C(=O)O)c3ccccc3)C(=O)N2[C@H]1C(=O)O` (some centres unmarked) [Carbenicillin, reference compound], which “Effect (on growth of Agrobacterium)” value ([1]; control, final concentration 50 mg/L) is on record?
Answer: The value was “No Growth”.

Question: And the “% Transformation” value [2]?
Answer: The value was 14.3%.

Question: Which “Effect (on growth of Agrobacterium)” value [1, 3] does the source give for `[Cl][Al]([Cl])[Cl]` [Aluminum Chloride] here?
Answer: Its value is “Growth”.

Question: For Lead Nitrate, which “Effect (on growth of Agrobacterium)” value [1, 3] is on record?
Answer: The value was “Growth”.

Question: `[Cl-].[Cl-].[Zn+2]` [Zinc Chloride] was tested. Which “Effect (on growth of Agrobacterium)” value [1, 3] did it give?
Answer: Its value is “Growth”.

Question: Which “Effect (on growth of Agrobacterium)” value [1, 3] does the source give for `[Cl][Ni][Cl]` [Nickel Chloride] here?
Answer: Its value is “Growth”.

Question: For Manganese Chloride, which “Effect (on growth of Agrobacterium)” value [1, 3] is on record?
Answer: Its value is “Slow Growth”.

Question: How did the “Effect (on growth of Agrobacterium)” value [1, 3] turn out when `[Na+].[Na+].[O]=[Mo](=[O])([O-])[O-]` [Sodium Molybdate] was run?
Answer: Its value is “Growth”.

Question: For `[Cl][Cr][Cl]` [Chromium (II) Chloride], which “Effect (on growth of Agrobacterium)” value [1, 3] is on record?
Answer: The value was “Growth”.
